Publication PMC7996970 (The Biochemical journal, 2020)

Experiments:
[1] = target: isocitrate dehydrogenase 1 (IDH1) (Homo sapiens, UniProt O75874, D273L/R132H); assay: isothermal titration calorimetry; assay type: binding
[2] = target: isocitrate dehydrogenase 1 (IDH1) (Homo sapiens, UniProt O75874, D273S); assay: steady-state kinetics, NADPH absorbance at […] nm; assay type: biochemical
[3] = target: isocitrate dehydrogenase 1 (IDH1) (Homo sapiens, UniProt O75874, D273L); assay: steady-state kinetics, NADPH absorbance at […] nm; assay type: biochemical
Sequence of isocitrate dehydrogenase 1 (IDH1) (Homo sapiens, UniProt O75874, D273L) (O75874 2-414 D273L): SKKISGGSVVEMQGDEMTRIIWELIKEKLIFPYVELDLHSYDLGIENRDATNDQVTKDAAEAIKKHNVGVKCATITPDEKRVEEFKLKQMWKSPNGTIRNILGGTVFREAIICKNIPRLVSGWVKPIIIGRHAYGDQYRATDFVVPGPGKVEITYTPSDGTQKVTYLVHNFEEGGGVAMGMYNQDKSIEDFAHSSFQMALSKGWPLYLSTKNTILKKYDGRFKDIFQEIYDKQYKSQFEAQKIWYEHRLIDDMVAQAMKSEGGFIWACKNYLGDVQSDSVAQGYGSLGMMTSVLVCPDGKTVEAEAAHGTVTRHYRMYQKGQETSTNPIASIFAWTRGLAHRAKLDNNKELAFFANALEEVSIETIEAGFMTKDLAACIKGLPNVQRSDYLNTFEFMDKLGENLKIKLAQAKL

[4] = target: isocitrate dehydrogenase 1 (IDH1) (Homo sapiens, UniProt O75874); assay: steady-state kinetics, NADPH absorbance at […] nm; assay type: biochemical
Sequence of isocitrate dehydrogenase 1 (IDH1) (Homo sapiens, UniProt O75874) (O75874 2-414): as the sequence (O75874 2-414 D273L) above, with L272D counted along it

[5] = target: isocitrate dehydrogenase 1 (IDH1) (Homo sapiens, UniProt O75874, K217Q); assay: steady-state kinetics, NADPH absorbance at […] nm; assay type: biochemical
Sequence of isocitrate dehydrogenase 1 (IDH1) (Homo sapiens, UniProt O75874, K217Q) (O75874 2-414 K217Q): as the sequence (O75874 2-414 D273L) above, with K216Q, L272D counted along it

[6] = target: isocitrate dehydrogenase 1 (IDH1) (Homo sapiens, UniProt O75874, K217M); assay: steady-state kinetics, NADPH absorbance at […] nm; assay type: biochemical
Sequence of isocitrate dehydrogenase 1 (IDH1) (Homo sapiens, UniProt O75874, K217M) (O75874 2-414 K217M): as the sequence (O75874 2-414 D273L) above, with K216M, L272D counted along it

[7] = target: isocitrate dehydrogenase 1 (IDH1) (Homo sapiens, UniProt O75874, D273N); assay: steady-state kinetics, NADPH absorbance at […] nm; assay type: biochemical
Sequence of isocitrate dehydrogenase 1 (IDH1) (Homo sapiens, UniProt O75874, D273N) (O75874 2-414 D273N): as the sequence (O75874 2-414 D273L) above, with L272N counted along it

Sequence of isocitrate dehydrogenase 1 (IDH1) (Homo sapiens, UniProt O75874, D273S) (O75874 2-414 D273S): as the sequence (O75874 2-414 D273L) above, with L272S counted along it
Sequence of isocitrate dehydrogenase 1 (IDH1) (Homo sapiens, UniProt O75874, D273L/R132H) (O75874 2-414 R132H/D273L): as the sequence (O75874 2-414 D273L) above, with R131H counted along it

Kd [1] [µM] | SMILES | Km [2] [µM] | Km [3] [µM] | Km [4] [µM] | Km [5] [µM] | Km [6] [µM] | Km [7] [µM]
3.3 ± 0.5 | Cc1ccccc1C(C(=O)NC1CCCCC1)N(C(=O)Cn1ccnc1C)c1cccc(F)c1 (stereo not shown) [AGI-5198] |  |  |  |  |  | 
 | O=C(O)CC(C(=O)O)C(O)C(=O)O (stereo not shown) [isocitrate] | 12000 ± 3000 | 1900 ± 200 | 61 ± 5 | 250 ± 20 | 150 ± 20 | 19000 ± 2000
